Data set [1] deals with rat model of diabetic retinopathy. In words: Rat model of diabetic retinopathy (STZ). It counts as in vivo, Wistar rats. Conditions: for retinal leukocyte stasis, Leukocyte count: Concanavalin A/FITC, 14 days after intravitreal injection, compounds 0.25%, dexamethasone 0.1%; for number of leukocyte stasis in the retina (fluorescent staining, FIG. 8; in words) / retinal vascular penetration in rats (fluorescent staining, FIG. 6; in words): intraocular injection, versus model group. On the procedure:
3.1 Laboratory animals: SPF-grade male Wistar rats, weighed 180-220 g.
3.3 Animal modeling and grouping: After one week of adaptive feeding, 134 male Wistar rats (weighed 220-260 g) were administered 65 mg/kg of STZ by one-time intraperitoneal injection to prepare a rat model of type I diabetic. The rats were fasting but water was allowable overnight for 15 h. The formulated STZ solution was intraperitoneally injected according to body weight. After 1 h, the diet was resumed and blood glucose was measured at 72 h. The successfully modeled diabetic rats (120 rats) were selected for continued feeding, and randomly divided into the following 6 groups according to blood glucose (20 rats per group), plus a group of normal rats with no STZ injected as a negative control group.
3.4 Administration: The rats continued to be fed until blood glucose was measured once before administration. After blood glucose reached the standard, drugs were intravitreally injected, and indexs were subsequently tested after 14 days. Blood glucose was measured once before sampling.
3.5 Evans blue staining method (7 groups, 6 rats per group): Evans blue was intravenously injected. 2 hours later, normal saline was perfused into the left ventricle. The retina was taken to compare between the stained area and the unstained area to detect retinal vascular permeability.
3.6 Retinal leukocyte stasis detection method (7 groups, 6 rats per group): PBS was perfused into the left ventricle for 1 min to remove red blood cells and other substances. Concanavalin A (FITC (Sigma, C7642) was perfused (20 μg/ml in PBS, 5 mg/kg) to mark adherent leukocytes. 4% PFA was perfused for 4 min for fixation. 1% Albumin (Sigma, A6414) (in PBS) was perfused for 1 min, and then PBS was perfused for 2 min. The retina was taken for retinal wholemount. Thereafter, the stasis of leukocytes on the vascular endothelium was observed under a fluorescence microscope. […]

The subject of data set [2] is rat model of acute lung injury. As to the kind of experiment: Rat model of LPS-induced acute lung injury. It counts as in vivo, Wistar rats. The arrangement: IL-6 (serum) / IL-6 (homogenate of lung tissue) / IL-6 (bronchoalveolar lavage fluid) / TNF-α (serum) / TNF-α (homogenate of lung tissue) / TNF-α (bronchoalveolar lavage fluid): unit not given here. The note with it: ELISA; for expression levels of IL-6 and TNF-α (in words): rat model of acute lung injury; for IL-6 (bronchoalveolar lavage fluid) / IL-6 (homogenate of lung tissue) / IL-6 (serum) / TNF-α (bronchoalveolar lavage fluid) / TNF-α (homogenate of lung tissue) / TNF-α (serum): test drug 30 mg/kg i.p. 2 h before and 1 h after LPS, 12 h after modeling. As to the method: 1. Experimental aminals: SPF-grade male Wistar rats, weighed 180-220 g, 6-8 weeks old.
3. Establishment of animal model: The rats were adaptively fed for one week. After the animals were anesthetized, 3 mg/kg LPS (B8) was injected intratracheally to prepare the rat model of acute lung injury.
4. […] At 2 hours before modeling (before tracheal injection of LPS), the test drug (30 mg/kg, the vehicle was 0.3% DMSO in saline) was intraperitoneally injected. At 1 hour after modeling, the test drug was administered once again (at the same dose). At 12 hours after modeling, the animals were sacrificed, and the samples were collected for the tests of various indexes. […]
5.2 ELISA method: 5 rats per group. The serum, alveolar lavage fluid, and tissue homogenate of one lung of each of the rats were subjected to ELISA assay to determine the TNF-α and IL-6 levels.
(In an ELISA, binding on a coated surface is turned into a signal by an enzyme label.)

Data set [3] can be described thus: Pharmacokinetics in vivo in rats. Further details: species or system SD rats. The note with it: for clearance / half-life / Vd / AUC / Cmax / bioavailability: SD, rat, plasma; for Vd: read-out: Apparent volume of distribution (Vss); for AUC: read-out: Area under the curve of plasma concentration-time (AUC); for Cmax: read-out: Peak concentration (Cmax). As to the method:
1. […] At different time points after administration, blood samples were collected into EDTA blood sample collection tubes. Plasma was separated by centrifugation and stored at −20° C. for the analysis afterwards.
2. Handling of blood samples and LC-MS/MS analysis: the standard curve and formulation and processing of quality control sample: The compound stock solution was diluted with 50% methanol in water to form a standard curve working solution containing each compound at a concentration of 40-20000 ng/mL and a quality control working solution of 120, 1200, and 16000 ng/mL. 47.5 μL of blank rat plasma were respectively taken, and added into 2.50 μL of standard curve working solution or the quality control working solution, to formulate the standard curve samples containing the compound at a concentration of 2.00-1000.00 ng/mL and the quality control samples having a concentration of […] and 800.00 ng/mL. 400 μL of acetonitrile (containing 5 ng/mL of verapamil as an internal standard) was added respectively. The samples were vortexed for 3 min, centrifuged at 20000 rcf, 4° C. for 15 min. The supernatant was taken for LC-MS/MS analysis.
3. Treatment of the compound blood samples: 5 μL of plasma sample was taken, to which 95 μL of blank rat plasma was added, and 800 μL of acetonitrile (containing 5 ng/mL of verapamil as an internal standard) was added. The samples were vortexed for 3 min, centrifuged at 15000 rcf, 4° C. for 10 min. The supernatant was taken for LC-MS/MS analysis (chromatographic column: ACQUITY UPLC® BEH C18 2.1×50 mm 1.7 μm; mobile phase A: 0.1% formic acid in water; mobile phase B: acetonitrile; flow rate: […]).
4. Analysis of the results: pharmacokinetic parameters were fit and calculated by WinNonlin software using statistical […] method, mainly including kinetic parameters Tmax, t1/2, Cmax, AUC0-t, AUC0∞, Cl, Vd, F, etc. The pharmacokinetic data were calculated and processed using Microsoft Excel, such as mean and standard deviation.

A short description of data set [4]: Ocular irritation after eye drops: ophthalmic observation and free protoporphyrin (FEP) in eye rinsing solution (ELISA). It counts as in vivo, SD rats. The note with it: 2% eye drops (10 μl) twice a day for 7 days. On the procedure: 2.1 Experimental aminals: SPF grade male SD rats, weighed 180-200 g, were used and adaptively fed for one week.
2.3 Experimental animal grouping: the animals were randomly divided into 3 groups (6 rats per group) of a negative control group (normal saline), a Compound 71 group and a Compound 8 group.
2.4 Administration method and sampling: 2% Compound (10 μl) dissolved in normal saline (after filtration) was dropped into the surface of each rat's eye with a pipette for 10 s. The eye drop was applied twice a day for a total of 7 days. Samples were taken at 1 and 16 hours after the second administration on Day 7 of administration to determine the ocular distribution concentration of the drug.
[…] The rinsing solution was frozen at −80° C. for subsequent detection of irritant inflammatory response on the surface of the bulbus oculi.
2.7.2 Result of measurement of secretion of porphyrin: it was further determined whether inflammation or bleeding in the eyes occurred after eye drops by ELISA essay of free protoporphyrin (FEP) in erythrocytes. As indicated by the results, the level of FEP in the sample of eye rinsing solution was at a low concentration level for the rats in both the test drug group and the negative control group. There was no significant difference (P>0.05).

The mark [5] stands for this setting: 3 mg/kg oral administration in rats (Table 2A).
[6] abbreviates: 3 mg/kg intravenous injection in rats.

Where two headings read alike, the source gives them in different places.

In the case of `CCOc1ccc(-c2c(F)cc(NC(=O)N3CCC(C(C)(C)C)CC3)cc2-c2nn[nH]n2)cn1` [Compound 8, 4-(tert-butyl)-N-(4-(6-ethoxypyrid-3-yl)-3-fluoro-5-(2H-tetrazol-5-yl)phenyl)piperidine-1-carboxamide], in data set [1], the “retinal leukocyte stasis, Leukocyte count” value was determined as 5.32 ± 1.38; the “number of leukocyte stasis in the retina (fluorescent staining, FIG. 8; in words)” value is “significantly reduced”; the “retinal vascular penetration in rats (fluorescent staining, FIG. 6; in words)” value is listed as “significantly reduced”. In data set [2], the “expression levels of IL-6 and TNF-α (in words)” value is listed as “effectively reduce”; the “IL-6 (bronchoalveolar lavage fluid)” value worked out at 171.55 ± 81.93; the “IL-6 (homogenate of lung tissue)” value was 250.10 ± 70.26; the “IL-6 (serum)” value is 470.76 ± 151.60. Besides, in data set [2], the “TNF-α (bronchoalveolar lavage fluid)” value stood at 26.72 ± 10.35, the “TNF-α (homogenate of lung tissue)” value came to 35.74 ± 11.82 and the “TNF-α (serum)” value is 94.89 ± 28.07. Further, in data set [3] (setting [5]), the “Peak time” value worked out at 0.78 h, the bioavailability came out at 6.1%, the half-life was 3.37 h and the AUC is 3130 ng·h/mL. Moreover, the Cmax in data set [3] (setting [5]) worked out at 1390 ng/mL. In data set [3] (setting [6]), the clearance was 9.87 mL/min/kg, the half-life was 0.56 h, the Vd is 0.328 L/kg and the AUC worked out at 5090 ng·h/mL. Moreover, the Cmax in data set [3] (setting [6]) was 16400 ng/mL. Also, in data set [4] (1 h), the “FEP expression level in eye rinsing solution, Left eye” value (from here on “FEP expression level … Left eye”) is reported as 1.53 ± 0.03 ng/mL and the “FEP expression level in eye rinsing solution, Right eye” value (from here on “FEP expression level … Right eye”) came to 1.45 ± 0.02 ng/mL. In addition, in data set [4] (16 h), the “FEP expression level … Left eye” value is 1.57 ± 0.08 ng/mL and the “FEP expression level … Right eye” value came to 1.57 ± 0.06 ng/mL.

For the compound `CCOc1ccc(-c2ccc(NC(=O)N[C@H]3CC[C@H](C)CC3)cc2-c2nn[nH]n2)cn1` [Compound 71, 1-(4-(6-ethoxypyrid-3-yl)-3-(2H-tetrazol-5-yl)phenyl)-3-((trans)-4-methylcyclohexyl)urea], in data set [1], the “retinal leukocyte stasis, Leukocyte count” value came out at 5.22 ± 1.13; the “number of leukocyte stasis in the retina (fluorescent staining, FIG. 8; in words)” value is on record as “significantly reduced”; the “retinal vascular penetration in rats (fluorescent staining, FIG. 6; in words)” value was “significantly reduced”. In data set [2], the “expression levels of IL-6 and TNF-α (in words)” value was “effectively reduce”; the “IL-6 (bronchoalveolar lavage fluid)” value turned out to be 184.29 ± 75.57; the “IL-6 (homogenate of lung tissue)” value is given as 236.26 ± 84.91; the “IL-6 (serum)” value came to 473.14 ± 134.88. For the same compound, in data set [2], the “TNF-α (bronchoalveolar lavage fluid)” value is recorded as 25.73 ± 11.35, the “TNF-α (homogenate of lung tissue)” value came out at 37.03 ± 10.88 and the “TNF-α (serum)” value is on record as 101.63 ± 37.40. Moreover, in data set [3] (setting [5]), the “Peak time” value was found to be 2.72 h, the bioavailability was found to be 3.6%, the half-life was 3.63 h and the AUC was 7480 ng·h/mL. The Cmax in data set [3] (setting [5]) was found to be 914 ng/mL. In data set [3] (setting [6]), the clearance was 2.42 mL/min/kg, the half-life is 0.93 h, the Vd turned out to be 0.156 L/kg and the AUC was determined as 20700 ng·h/mL. The Cmax in data set [3] (setting [6]) stood at 37500 ng/mL. In addition, in data set [4] (1 h), the “FEP expression level … Left eye” value is 1.50 ± 0.02 ng/mL and the “FEP expression level … Right eye” value is listed as 1.54 ± 0.08 ng/mL. In addition, in data set [4] (16 h), the “FEP expression level … Left eye” value worked out at 1.61 ± 0.06 ng/mL and the “FEP expression level … Right eye” value came out at 1.55 ± 0.09 ng/mL.

By clearance is commonly meant a measure of how efficiently the substance is removed, as volume per time. One may read the half-life as the time in which the quantity being followed falls by half. A word on the bioavailability: it is dose-corrected exposure relative to a reference, in per cent.

The values above are taken from US20250353835A1, “N-TETRAZOLYL ARYL UREA-BASED DERIVATIVES, PREPARATION METHOD THEREFOR, AND USE THEREOF” (Hangzhou Yirui Pharmaceutical Technology Co., Ltd, priority 2022, published 2025).
